{"source": "patent US5316775A", "about": "“Method of treating hepatitis B infection” (Kremers-Urban Company, priority 1993, dated 1994)", "type_in_all_cases": "cell-based", "key": {"[1]": {"system": "HBV", "assay": "antihepatitis viral activity: HBV virion DNA and intracellular HBV DNA in cultured cells (blot hybridization)", "procedure": "Details of the assay methodology can be found in: Korba and Milman, Antiviral Res., 15:217 (1991) and Korba and Gerin, Antiviral Res. (1992) (in press). The antiviral evaluations were performed on two separate passages of cells. All wells, in all plates, were seeded at the same density and at the same time. Due to the inherent variations in the levels of both intracellular and extracellular HBV DNA, only depressions greater than 3.5-fold (for HBV virion DNA) or 3.0-fold (for HBV DNA replication intermediates) from the average levels for these HBV DNA forms in untreated cells are generally considered to be statistically significant [P<0.05]. The levels of integrated HBV DNA in each cellular DNA preparation (which remain constant on a per cell basis in these experiments) were used to calculate the levels of intracellular HBV DNA forms, thereby eliminating technical variations inherent in the blot hybridization assays.\nTypical values for extracellular HBV virion DNA in untreated cells range from 50 to 100 pg/ml culture medium (average of approximately 76 pg/ml). Intracellular HBV DNA replication intermediates in untreated cells range from 50 to 100 pg/μg cell DNA) (average approximately 74 pg/μg cell DNA). In general, depressions in the levels of intracellular HBV DNA due to treatment with antiviral compounds are less pronounced, and occur more slowly, than depressions in the levels of HBV virion DNA).\nIn the following data table, data is shown concerning analysis of intracellular HBV DNA at 24 hours following the 9th day of treatment. DNA in each cell DNA preparation were used to calculate the levels of episomal 3.2 Kb HBV genomes (MONO.) and HBV DNA replication intermediates (RI). A \"zero\" indicates an undetectable level of HBV DNA, sensitivity cutoff was 0.1 pg/ml."}, "[2]": {"assay": "toxicity analysis: uptake of neutral red dye", "conditions": "triplicate cultures, ± standard deviation, read-out: Neutral Red Dye Uptake at Indicated Drug Concentration", "procedure": "(§1) Toxicity analyses were performed in order to assess whether any observed antiviral effects are due to a general effect on cell viability. The method used was uptake of neutral red dye, a standard and widely used assay for cell viability in a variety of virus-host systems, including HSV and HIV.\n(§2) Toxicity results were performed in 96-well flat bottomed tissue cultures plates. Cells for the toxicity analyses were cultured and treated with test compounds with the same schedule as used for the antiviral evaluations. Each compound was tested at four concentrations, each in triplicate cultures. Uptake of neutral red dye was used to determine the relative level of toxicity. The absorbance of internalized dye at […] (A510) was used for the quantitative analysis. Values are presented as a percentage of the average A510 values (±standard deviations) in nine separate cultures of untreated cells maintained on the same 96-well plate as the test compounds."}, "[3]": {"system": "cell viability", "assay": "toxicity analysis: uptake of neutral red dye", "conditions": "triplicate cultures, ± standard deviation", "procedure": "as §1, §2"}}, "note": "Values joined by “and” are separate entries in the source; they are usually repeats but may differ in a detail not shown here. Equal entries are not always repeated. Where two headings read alike, the source gives them in different places."}
{"molecule": "Nc1ccn([C@H]2CC[C@@H](CO)O2)c(=O)n1", "note": "[2',3'-ddC, 2,3'-dideoxycytosine]", "values": [{"measurement": "effect on HBV DNA replication (in words)", "setting": "[1]", "value": "significant depressions of HBV DNA replication"}, {"measurement": "Intracellular HBV DNA MONO. (episomal 3.2 Kb HBV genomes)", "setting": "[1]; 10 μM, 24 hours following the 9th day of treatment", "value": "1.6 pg/μg CELL DNA and 1.8 pg/μg CELL DNA"}, {"measurement": "HBV VIRION DNA DAY 0", "setting": "[1]; 10 μM, day 0", "value": "63 pg/ml CULTURE MEDIUM and 87 pg/ml CULTURE MEDIUM and 82 pg/ml CULTURE MEDIUM"}, {"measurement": "HBV VIRION DNA DAY 3", "setting": "[1]; 10 μM, day 3", "value": "75 pg/ml CULTURE MEDIUM and 56 pg/ml CULTURE MEDIUM and 61 pg/ml CULTURE MEDIUM"}, {"measurement": "HBV VIRION DNA DAY 6", "setting": "[1]; 10 μM, day 6", "value": 26, "unit": "pg/ml CULTURE MEDIUM"}, {"measurement": "HBV VIRION DNA DAY 9", "setting": "[1]; 10 μM, day 9, zero = undetectable, cutoff 0.1 pg/ml", "value": "2 pg/ml CULTURE MEDIUM and 1 pg/ml CULTURE MEDIUM"}, {"measurement": "inhibition at 9 µM", "setting": "[1]; Hepatitis B virus, read-out: depression of HBV RI relative to average levels in untreated cells", "value": 90, "unit": "%"}, {"measurement": "viability", "setting": "[2]; 1000 μg/ml", "value": "12 ± 5", "unit": "%"}, {"measurement": "viability", "setting": "[2]; 3000 μg/ml", "value": "40 ± 4", "unit": "%"}, {"measurement": "Neutral Red Dye Uptake at Indicated Drug Concentration", "setting": "[3]; 10 μg/ml", "value": "102 ± 2 % of Control"}, {"measurement": "Neutral Red Dye Uptake at Indicated Drug Concentration", "setting": "[3]; 30 μg/ml", "value": "101 ± 3 % of Control"}]}
